The values that follow are results of earlier work, collected in US6894093B2, “Materials free of endorine disruptive chemicals” (priority 2001, dated 2005).

Where two headings read alike, the source gives them in different places.

On the set-up of data set [1]: key: Estrogenic (EA); Carcinogenic (CA) Activity. The note with it: plastic monomers.

`CC(C)(c1ccc(O)cc1)c1ccc(O)cc1` [Bisphenol A]: in data set [1], the “Monomer Exhibits Estrogenic (EA) or Carcinogenic (CA) Activity” value was “EA”. Also, in the data set with estrogen receptor (ER) (statement in background text), the “endocrine disruptive activity” value was “exhibit endocrine disruptive activity” and the “estrogenic activity” value is “deleterious estrogenic activity”.

For `COc1ccc(O)c(C(C)(C)C)c1` [Butylated hydroxyanisole (BHA), Butylated hydroxyanisole], the ADI was 0 to 0.5 mg/kg. `CCCCC(CC)COC(=O)c1ccccc1C(=O)OCC(CC)CCCC` (stereo not shown) [DEHP, di(2-ethylhexyl) phthalate]: the “estrogenic activity” value with estrogen receptor (ER) (statement in background text) is on record as “estrogen-mimicking”. As to `CCCOC(=O)c1cc(O)c(O)c(O)c1` [Propyl gallate], the ADI is 0 to 2.5 mg/kg. As to `CC(C)(C)c1cc(O)ccc1O` [Tert-Butylhydroquinone (TBHQ), Tert-Butylhydroquinone], the ADI is 0 to 0.2 mg/kg. As to `C=CCl` [Vinylchloride], in data set [1], the “Monomer Exhibits Estrogenic (EA) or Carcinogenic (CA) Activity” value is “CA”. “(di)Butyl hydroxy toluene [(di)Butyl hydroxy toluene (BHT)]”: in the data set on estrogen receptor (ER), the “Predicted Estrogenic Activity” value is on record as “Yes” and the “endocrine disruptive activity” value was “exhibits endocrine disruptive activity”.
